Measured values published in PMC8398847, “Isavuconazole: Thermodynamic Evaluation of Processes Sublimation, Dissolution and Partition in Pharmaceutically Relevant Media” (Molecules, 2021).
“And” between values parts separate entries of the source, which are not always exact repeats. Identical values can stand only once.

Assay: Vapor pressure by transpiration (inert gas-carrier transfer) method; sublimation thermodynamic functions
Type: physicochemical
Details: test of the technique with the standard
Method: The thermodynamic functions of sublimation were calculated as the fitting coefficients of the Clarke and Glew equation [17]:(1) Rlnp/p^0=ΔcrgGm°(θ)/θ+ΔcrgHm°(θ)(1/θ−1/T)+ΔcrgCp,m°(θ)(θ/T−1+lnT/θ) where ΔcrgHm°(θ) is the standard molar sublimation enthalpy, ΔcrgGm°(θ) is the standard molar Gibbs energy of sublimation, and ΔcrgCp,m°(θ) is the difference between the constant pressure standard molar heat capacity Cp,m°(g) of the gaseous compound and the constant pressure standard molar heat capacity Cp,m°(cr) of the crystalline compound. The value is the arbitrary reference temperature θ = 298.15 K; p^0 = 10^5 Pa is the reference pressure.
The transpiration method was used for the sublimation experiment. A stream of an inert gas (nitrogen) was passed over a sample at the constant temperature and flow rate; saturation of the gas with the substance vapor was achieved by low transpiration rate of gas. Then, the sublimated quantity of condensed vapor was determined. The volume of the inert gas and the amount of the sublimated material were used for calculation the vapor pressure over the sample of compound at this temperature. The following procedure was used for determination the amount of sublimed substance. The condensed sample was dissolved in a known volume of solvent Vsol. The mass of the substance was determined by the measurement of absorbance A of its solution (spectrophotometer Cary-50, Varian, Palo Alto, CA, USA, Software Version 3.00 (339)). According to the Lambert–Beer law the concentration of the solution c (mol·L^−1) can express knowing a value of the extinction coefficient ε (l·mol^−1·cm^−1) of the studied compound dissolved in the solvent and an absorbing path length (l):A = εcl(5) where l is an absorbing path length. Calculation the mass of sublimed compound was performed according to the equation:m = cVsolM(6)
M is the molar mass of the studied substance.
The vapor pressure p at each temperature was determined from the amount of the substance collected within a known time:p = mRTa/VM(7) where V is the volume of the gaseous nitrogen evaluated from the time measurement and the flow rate at the flow meter temperature Ta and the atmospheric pressure. Uncertainties for transpiration experiment parameters (T, m, Ta, V) are reported as standard deviations (Table 1). The combined standard uncertainty of vapor pressure measurements were estimated taking into account uncertainties of all variables involved in eq 7.
The details of equipment and experimental procedure are given in [33]. The sublimation technique was tested with benzoic acid as standard. The experimental vapor pressure values were obtained in the temperature interval of (307–385) K and were in good agreement with the results of studies within the limits of experimental error (Figure S7). The standard sublimation enthalpy of benzoic acid measured by us was 90.5 ± 0.3 kJ·mol^−1 and consistent with recommended by IUPAC value—89.7 ± 0.5 kJ·mol^−1 [38]. Each experiment at fixed temperature was repeated three times with the standard deviation of up to 5%.
O=C(O)c1ccccc1 [benzoic acid] gave a standard sublimation enthalpy of 21.6 ± 0.072 kcal/mol.

Assay: not given
Details: 298.15 K; IVZ cluster; ref Table S1 [1]-[16]; cited from earlier work
For CC(=O)c1ccc(F)cc1 [p-fluoroacetophenone], the “sublimation Gibbs energy (Table S1)” value is listed as 4.21 kcal/mol and the “sublimation enthalpy (Table S1)” value is listed as 17.1 kcal/mol.

Same assay, conditions: 298.15 K; bicalutamide cluster; cited from earlier work
In the case of c1ccc(CNc2ccccc2)cc1 [N-phenyl benzylamine], the “sublimation Gibbs energy (kJ∙mol-1, Table S2)” value is given as 36.9 kJ/mol and the “sublimation enthalpy (first kJ∙mol-1 column, Table S2)” value is given as 104.4 kJ/mol. In the case of O=C(O)c1ccccc1Nc1ccccc1 [N-phenyl-Anthranilic acid], the “sublimation Gibbs energy (kJ∙mol-1, Table S2)” value is listed as 58.9 kJ/mol and the “sublimation enthalpy (first kJ∙mol-1 column, Table S2)” value is listed as 126 kJ/mol. For O=C(O)c1cccnc1Nc1cccc(C(F)(F)F)c1 [Niflumic acid], the “sublimation Gibbs energy (kJ∙mol-1, Table S2)” value is listed as 61.3 kJ/mol and the “sublimation enthalpy (first kJ∙mol-1 column, Table S2)” value is listed as 130.2 kJ/mol. For CC(=O)Nc1ccc(O)cc1 [Paracetamol], the “sublimation Gibbs energy (kJ∙mol-1, Table S2)” value is listed as 60 kJ/mol and the “sublimation enthalpy (first kJ∙mol-1 column, Table S2)” value is listed as 117.9 kJ/mol. In the case of CC(=O)NCC(=O)Nc1ccccc1 [acetylglycine anilide], the “sublimation Gibbs energy (kJ∙mol-1, Table S2)” value is listed as 59.9 kJ/mol and the “sublimation enthalpy (first kJ∙mol-1 column, Table S2)” value is listed as 125.4 kJ/mol. For NC(=O)c1cccc(N)c1 [m-Aminobenzamide], the “sublimation Gibbs energy (kJ∙mol-1, Table S2)” value is listed as 57.5 kJ/mol and 57.8 kJ/mol and the “sublimation enthalpy (first kJ∙mol-1 column, Table S2)” value is listed as 125.3 kJ/mol and 128.6 kJ/mol. For NC(=O)c1ccccc1N [o-Aminobenzamide], the “sublimation Gibbs energy (kJ∙mol-1, Table S2)” value is given as 46.1 kJ/mol and the “sublimation enthalpy (first kJ∙mol-1 column, Table S2)” value is given as 106.8 kJ/mol. For NC(=O)c1ccc(N)cc1 [p-Aminobenzamide], the “sublimation Gibbs energy (kJ∙mol-1, Table S2)” value is given as 61.7 kJ/mol and the “sublimation enthalpy (first kJ∙mol-1 column, Table S2)” value is given as 131.2 kJ/mol. In the case of CC(=O)Nc1ccc(C=O)cc1 [p-acetaminobenzaldehyde], the “sublimation Gibbs energy (kJ∙mol-1, Table S2)” value is listed as 44.1 kJ/mol and the “sublimation enthalpy (first kJ∙mol-1 column, Table S2)” value is listed as 99.1 kJ/mol.

Assay: not given
Design: method as in earlier work
Details: cited from earlier work
In the case of O=C(O)c1ccccc1 [benzoic acid], the “standard sublimation enthalpy recommended by IUPAC” value is listed as 21.4 ± 0.12 kcal/mol.
